Assays:
[1] = system: p53-responsive element of mdm2; assay: p53 transactivation assay (dual-luciferase, mdm2 promoter reporter) in MEF; format: cell-based, mouse; conditions: MEF treated for 10 hours, TNFα 100 ng.ml^−1, adriamycin 5 μg.ml^−1, etoposide 25 μg.ml^−1; for activation of the p53-responsive element (luciferase activity): luciferase assayed 24 hours after transfection
Procedure: A: MEF were transfected with the firefly luciferase gene under the control of the mdm2 promoter and treated for 10 hours either with TNFa adriamycin, or etoposide. The luciferase activity was assayed 24 hours after transfection. The p53 responsive element construct was transfected in combination with either p53wt, as a positive control, or with the dominant negative mutants p53-H273 or p53-H175. The luciferase activity was assayed 24 hours later. The results are shown as mean+/−S.D. of four measurements.
(§1) Human wild type p53 cDNA or its mutated forms, H175 and H273 were cloned into the BamH1 site of pCDNA3 vector (Invitrogen), then transferred in pEGFPC1 (Clontech) to give GFP-tagged proteins. Constructs expressing MYC epitope-tagged mutant Rac1, Cdc42 and RhoA proteins and their various mutants were kindly provided by P. Chavrier (Dutartre et al., 1996). The GFP fusion proteins were cloned in the pEGFP-C1 vector (Gauthier-Rouviere et al., 1998), (Ory et al., 2000), (Roux et al., 1997). The pcDNA3myc-NWASP containing the Cdc42-interacting domain of WASP was previously described in (Philips et al., 2000). The pGL2B-mdm2 plasmid in which the reporter gene luciferase is controlled by the p53-responsive element of mdm2 (Barak et al., 1994) was a kind gift of E. Yonish-Rouach. pTKRL plasmid was from Promega. TNFα, adriamycin and etoposide (Sigma) were used in all experiments at the concentration of 100 ng.ml^−1, 5 μg.ml^−1 and 25 μg.ml^−1, respectively.
p53 transactivation was measured using the dual-luciferase assay system from Promega. Cells (5×10^4) were seeded onto twelve-well plates and transfected 18 hours later in OptiMEM containing 0.440 μg of DNA (0.2 μg of appropriate GTPase plasmids, 0.2 μg of pGL2B-mdm2-luciferase plasmid and 0.04 μg of pTKRL plasmid) using 0.33 μl of Lipofectamine (Gibco-BRL) for 4 h. Cells were then left for 24 h in DMEM supplemented with 10% FCS, harvested in […] of Passive Lysis Buffer (PLB, Promega), and luciferase activity was measured following the Dual-luciferase™ Reporter Assay Protocol as recommended by Promega, using a luminometer fitted with two injectors (Berthold).
Cdc42-dependent filopodia formation was induced by bradykinin (Kozma et al., 1995; Nobes and Hall, 1995a). p53 was activated either by Tumor Necrosis Factor-a (TNFa), or using two cytotoxic drugs adriamycin and etoposide, previously shown to induce accumulation of p53 in MEF (Klefstrom et al., 1997; Lowe et al., 1993). […] Finally, we monitored the effect of p53 upregulation by TNFα, etoposide and adriamycin on Cdc42-dependent filopodia formation by bradykinin.

MEF = assay: Filopodia formation in MEF (F-actin staining, cells with at least 5 filopodia scored positive); format: cell-based, mouse; conditions: pretreated for 10 hours (TNFα 100 ng.ml^−1, adriamycin 5 μg.ml^−1, etoposide 25 μg.ml^−1), followed by 12 minutes bradykinin; bradykinin alone 62%
Description: as §1
Cdc42-dependent filopodia formation was induced by bradykinin (Kozma et al., 1995; Nobes and Hall, 1995a). p53 was activated either by Tumor Necrosis Factor-a (TNFa), or using two cytotoxic drugs adriamycin and etoposide, previously shown to induce accumulation of p53 in MEF (Klefstrom et al., 1997; Lowe et al., 1993).

Compound	activation of the p53-responsive element as % of the value obtained with the positive control (p53 wt) [1]	activation of the p53-responsive element (luciferase activity) [1]	MEF having filopodia (bradykinin-mediated filopodia formation after pretreatment) (MEF)
Tumor Necrosis Factor-a [TNFα]	36%	twenty eight-fold	28%
COc1cccc2c1C(=O)c1c(O)c3c(c(O)c1C2=O)C[C@@](O)(C(=O)CO)C[C@@H]3O[C@H]1C[C@H](N)[C@H](O)[C@H](C)O1 [adriamycin]	23%	nineteen-fold	16%
COc1cc([C@@H]2c3cc4c(cc3[C@@H](O[C@@H]3O[C@@H]5CO[C@@H](C)O[C@H]5[C@H](O)[C@H]3O)[C@H]3COC(=O)[C@H]23)OCO4)cc(OC)c1O [etoposide]	30%	twenty four-fold	20%
